Assay results as given in ChEMBL document CHEMBL1201862, “PubChem BioAssay data set” (2004).
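Five concentrations, 48 hours, 96-well plates. GI50: concentration for 50% inhibition of growth.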 Active and inactive are the calls of the source. No stated cut-off is given here; in the data, active = GI50 up to about 1.1 µM and inactive = higher.

How the values were obtained:
Test in all cases: inhibition of tumour cell growth, NCI panel, 48 h
DLD-1 = tested on: DLD-1
DMS-114 = tested on: DMS-114
DMS-273 = tested on: DMS-273
LXFL 529 = tested on: LXFL 529
M19-MEL = tested on: M19-MEL
RXF 631 = tested on: RXF 631
SNB-78 = tested on: SNB-78
XF498 = tested on: XF498
HOP-18 = tested on: HOP-18

SMILES: C=C1C(C)C2C(Cc3ccccc3)NC(=O)C23C(OC(C)=O)C=CC(C)(O)C(=O)C(C)C/C=C/C3C1O (stereo not given)
- GI50 (DLD-1): 0.78 µM (active)
- GI50 (DMS-114): 8.71 µM (inactive)
- GI50 (DMS-273): 1.96 µM (inactive)
- GI50 (LXFL 529): 3.14 µM (inactive)
- GI50 (M19-MEL): 16.1 µM (inactive)
- GI50 (RXF 631): 0.117 µM (active)
- GI50 (SNB-78): 0.116 µM (active)
- GI50 (XF498): 2.01 µM (inactive)

SMILES: CCCC1C[C@H]2CCCCN2[C@H]2CCCN12 (stereo not given in full)
- GI50 (DLD-1): > 50.4 µM (inactive)
- GI50 (DMS-114): > 51.5 µM (inactive)
- GI50 (DMS-273): > 61.9 µM (inactive)
- GI50 (HOP-18): > 100 µM (inactive)
- GI50 (LXFL 529): > 69.3 µM (inactive)
- GI50 (RXF 631): > 100 µM (inactive)
- GI50 (SNB-78): > 100 µM (inactive)
- GI50 (XF498): > 100 µM (inactive)

SMILES: NC(=O)c1c[se]c(C2OC(COP(=O)(O)CP(=O)(O)OCC3OC(n4cnc5c(N)ncnc54)C(O)C3O)C(O)C2O)n1 (stereo not given)
- GI50 (DLD-1): 55.5 µM (inactive)
- GI50 (DMS-114): 97.5 µM (inactive)
- GI50 (DMS-273): 38.6 µM (inactive)
- GI50 (HOP-18): > 100 µM (inactive)
- GI50 (LXFL 529): 51.4 µM (inactive)
- GI50 (M19-MEL): > 100 µM (inactive)
- GI50 (SNB-78): > 100 µM (inactive)
- GI50 (XF498): > 100 µM (inactive)

SMILES: CC1=C(C(=O)Nc2cc(F)c(F)cc2F)C(c2cccc([N+](=O)[O-])c2)C(C(=O)Nc2ccccc2C(F)(F)F)=C(C)N1 (stereo not given)
- GI50 (DLD-1): 25.3 µM (inactive)
- GI50 (DMS-114): 17 µM (inactive)
- GI50 (LXFL 529): 16.8 µM (inactive)
- GI50 (M19-MEL): 27.2 µM (inactive)
- GI50 (RXF 631): 19.2 µM (inactive)
- GI50 (SNB-78): 19.5 µM (inactive)

SMILES: COc1cc2c(cc1O)C=NCC2
- GI50 (DLD-1): > 100 µM (inactive)
- GI50 (DMS-114): > 100 µM (inactive)
- GI50 (DMS-273): > 100 µM (inactive)
- GI50 (LXFL 529): > 100 µM (inactive)
- GI50 (M19-MEL): > 100 µM (inactive)
- GI50 (SNB-78): > 100 µM (inactive)
- GI50 (XF498): > 100 µM (inactive)

SMILES: CN(C)/C(N)=N\C#N
- GI50 (DLD-1): 48.9 µM (inactive)
- GI50 (DMS-114): 93.8 µM (inactive)
- GI50 (DMS-273): > 100 µM (inactive)
- GI50 (HOP-18): > 100 µM (inactive)
- GI50 (LXFL 529): > 100 µM (inactive)
- GI50 (M19-MEL): 83.6 µM (inactive)
- GI50 (RXF 631): > 100 µM (inactive)
- GI50 (SNB-78): > 100 µM (inactive)

SMILES: CC(=O)C1Cn2c(=O)c3cc4ccccc4cc3c(=O)n2C=C1C (stereo not given)
- GI50 (DLD-1): > 100 µM (inactive)
- GI50 (DMS-114): > 100 µM (inactive)
- GI50 (DMS-273): > 100 µM (inactive)
- GI50 (LXFL 529): 83.4 µM (inactive)
- GI50 (M19-MEL): > 100 µM (inactive)
- GI50 (RXF 631): > 100 µM (inactive)
- GI50 (SNB-78): > 100 µM (inactive)
- GI50 (XF498): > 100 µM (inactive)

SMILES: CCSC(SCC)=C1C(=O)N(c2ccccc2)N=C1C
- GI50 (DLD-1): 11.8 µM (inactive)
- GI50 (DMS-273): 16.1 µM (inactive)
- GI50 (HOP-18): 13.2 µM (inactive)
- GI50 (LXFL 529): 10 µM (inactive)
- GI50 (M19-MEL): 0.378 µM (active)
- GI50 (SNB-78): 18.6 µM (inactive)
- GI50 (XF498): 10.6 µM (inactive)

SMILES: COc1cccc(NC(=O)CSc2nnc(-c3ccc(NC(C)=O)cc3)o2)c1
- GI50 (DLD-1): > 100 µM (inactive)
- GI50 (DMS-114): > 100 µM (inactive)
- GI50 (DMS-273): > 100 µM (inactive)
- GI50 (HOP-18): 14 µM (inactive)
- GI50 (LXFL 529): > 100 µM (inactive)
- GI50 (M19-MEL): > 100 µM (inactive)
- GI50 (SNB-78): > 100 µM (inactive)

SMILES: N#C/C(=C(/S)Nc1ccccc1)c1nc2ccccc2[nH]1
- GI50 (DLD-1): > 10 µM (inactive)
- GI50 (DMS-114): > 10 µM (inactive)
- GI50 (DMS-273): > 10 µM (inactive)
- GI50 (HOP-18): > 10 µM (inactive)
- GI50 (LXFL 529): > 10 µM (inactive)
- GI50 (M19-MEL): > 10 µM (inactive)
- GI50 (XF498): > 10 µM (inactive)

SMILES: Cc1cc(C=O)c2c(=O)c3c(O)ccc(/C=C/C(C)C)c3oc2c1
- GI50 (DLD-1): 70.1 µM (inactive)
- GI50 (DMS-114): 41.4 µM (inactive)
- GI50 (DMS-273): 48.3 µM (inactive)
- GI50 (LXFL 529): 43.4 µM (inactive)
- GI50 (M19-MEL): 36.7 µM (inactive)

SMILES: Cc1ccc(S(=O)(=O)Nc2cccc3c(=O)nc[nH]c23)cc1
- GI50 (DMS-114): 31.2 µM (inactive)
- GI50 (DMS-273): > 100 µM (inactive)
- GI50 (HOP-18): 53 µM (inactive)
- GI50 (LXFL 529): > 86.7 µM (inactive)
- GI50 (M19-MEL): > 100 µM (inactive)
- GI50 (SNB-78): > 100 µM (inactive)
- GI50 (XF498): > 100 µM (inactive)

SMILES: CC(=O)c1ccc2c(ccc(=O)n2C)c1
- GI50 (DLD-1): > 100 µM (inactive)
- GI50 (DMS-114): > 100 µM (inactive)
- GI50 (DMS-273): > 100 µM (inactive)
- GI50 (HOP-18): > 100 µM (inactive)
- GI50 (LXFL 529): > 100 µM (inactive)
- GI50 (M19-MEL): > 100 µM (inactive)
- GI50 (XF498): > 100 µM (inactive)

SMILES: CC(C)C(=O)/C=C/c1ccc(Cl)cc1
- GI50 (DLD-1): 11.9 µM (inactive)
- GI50 (DMS-114): 16.9 µM (inactive)
- GI50 (DMS-273): 3.99 µM (inactive)
- GI50 (HOP-18): 4.9 µM (inactive)
- GI50 (LXFL 529): 14.9 µM (inactive)
- GI50 (M19-MEL): 14.4 µM (inactive)
- GI50 (XF498): 7.78 µM (inactive)

SMILES: O=[N+]([O-])c1ccc(C[P+]2(c3ccccc3)CCCCC2)cc1.[O-][Cl+3]([O-])([O-])[O-]
- GI50 (DLD-1): > 100 µM (inactive)
- GI50 (DMS-114): > 100 µM (inactive)
- GI50 (DMS-273): > 100 µM (inactive)
- GI50 (HOP-18): > 100 µM (inactive)
- GI50 (LXFL 529): 97.7 µM (inactive)
- GI50 (XF498): < 0.01 µM (active)

SMILES: CCOP1(=O)C=CC(Cl)=C(C)C1 (stereo not given)
- GI50 (DLD-1): 6.97 µM (inactive)
- GI50 (DMS-114): 15.6 µM (inactive)
- GI50 (HOP-18): 17.4 µM (inactive)
- GI50 (LXFL 529): 12.4 µM (inactive)
- GI50 (M19-MEL): 21.6 µM (inactive)
- GI50 (SNB-78): 18.9 µM (inactive)
- GI50 (XF498): 19 µM (inactive)

SMILES: O=C1C(NCCO)=C(N2CC2)C(=O)C(NCCO)=C1N1CC1
- GI50 (DLD-1): > 46.2 µM (inactive)
- GI50 (DMS-114): 19.5 µM (inactive)
- GI50 (DMS-273): 5.46 µM (inactive)
- GI50 (HOP-18): > 100 µM (inactive)
- GI50 (LXFL 529): > 51.6 µM (inactive)
- GI50 (M19-MEL): 28.5 µM (inactive)
- GI50 (SNB-78): > 100 µM (inactive)
- GI50 (XF498): 53.3 µM (inactive)

SMILES: Cc1ccc(NC(=O)CC/C(CC(=O)c2ccc(Cl)cc2)=N\NC(=O)C(=O)NN)cc1C
- GI50 (DLD-1): > 100 µM (inactive)
- GI50 (DMS-114): > 100 µM (inactive)
- GI50 (DMS-273): > 100 µM (inactive)
- GI50 (HOP-18): > 100 µM (inactive)
- GI50 (LXFL 529): > 100 µM (inactive)
- GI50 (M19-MEL): > 100 µM (inactive)
- GI50 (SNB-78): > 100 µM (inactive)
- GI50 (XF498): > 100 µM (inactive)

SMILES: COc1ccc(C(CCC(C)=O)C(=O)O)cc1OC (stereo not given)
- GI50 (DLD-1): > 100 µM (inactive)
- GI50 (DMS-273): > 100 µM (inactive)
- GI50 (HOP-18): > 100 µM (inactive)
- GI50 (M19-MEL): > 100 µM (inactive)
- GI50 (SNB-78): > 100 µM (inactive)
- GI50 (XF498): > 100 µM (inactive)

SMILES: COc1cc(C2c3cc4c(cc3[C@@H](N(C)c3ccc(N(C)C)cc3)C3COC(=O)C23)OCO4)cc(OC)c1O (stereo not given in full)
- GI50 (DLD-1): 0.443 µM (active)
- GI50 (DMS-114): 0.264 µM (active)
- GI50 (DMS-273): 0.291 µM (active)
- GI50 (HOP-18): 13.4 µM (inactive)
- GI50 (LXFL 529): 0.312 µM (active)
- GI50 (M19-MEL): 0.721 µM (active)
- GI50 (RXF 631): 0.357 µM (active)
- GI50 (XF498): 0.286 µM (active)

SMILES: Nc1cccc(S(=O)(=O)NCC(=O)O)c1
- GI50 (DLD-1): > 100 µM (inactive)
- GI50 (DMS-114): > 100 µM (inactive)
- GI50 (DMS-273): > 100 µM (inactive)
- GI50 (HOP-18): > 100 µM (inactive)
- GI50 (LXFL 529): > 100 µM (inactive)
- GI50 (M19-MEL): > 100 µM (inactive)
- GI50 (RXF 631): > 100 µM (inactive)
- GI50 (SNB-78): > 100 µM (inactive)
- GI50 (XF498): > 100 µM (inactive)

SMILES: CCOC(=O)NC1=C(N2CC2)C(=O)C(NC(=O)OCC)=C(N2CC2)C1=O [DIAZIQUONE]
- GI50 (DLD-1): 7.38 µM (inactive)
- GI50 (DMS-114): 2.01 µM (inactive)
- GI50 (DMS-273): 0.596 µM (active)
- GI50 (HOP-18): 6.35 µM (inactive)
- GI50 (LXFL 529): 4.92 µM (inactive)
- GI50 (M19-MEL): 5.38 µM (inactive)
- GI50 (SNB-78): 7.36 µM (inactive)
- GI50 (XF498): 3.67 µM (inactive)
